Data: patent publication US11345710B2, “Imidazo[1,2-b]pyrimido[4,5-d]pyridazin-5(6H)-ones and the use thereof” (IMPACT THERAPEUTICS (SHANGHAI), INC, priority 2017, dated 2022)
Like-named read-outs stand apart in the source and are kept apart here.

Experiments:
Wee1 kinase (h) = Wee1 kinase (h) (Homo sapiens, UniProt P30291); experiment: Wee1 kinase (h) detection method, [γ-33P]-ATP filter assay; format: biochemical; conditions: 10 μM ATP, 40 minutes at room temperature
Description: Wee1 kinase (h) was incubated with 20 mM Tris/HCl pH 8.5, 0.2 mM EDTA, 500 μM […], 10 mM MgAcetate and 10 μM [γ-^33P]-ATP. Then the stock solution of all compounds under test with 50× concentration in 100% DMSO was added to make the final concentration of 1/0.1/0.01 μM, and then mixed the mixture well. The reaction was initiated by the addition of the Mg/ATP mix. After incubation for 40 minutes at room temperature, the reaction was stopped by the addition of phosphoric acid to a concentration of 0.5%. 10 μL of the reaction liquor was then spotted onto a P30 filtermat and washed four times in 0.425% phosphoric acid and once in methanol prior to drying and scintillation counting. Each compound sample was duplicated in duplicate. The negative control was lack of all the components of Wee1 enzyme, and the positive was addition of 30% phosphoric acid to terminate the reaction. The Wee1 inhibitor AZD1775 was detected at 10/0.01 μM at the same experiment condition.

LoVo cells = experiment: MTT based cell viability assay on LoVo cells; conditions: read-out: IC50, growth inhibition on LoVo cells
Description: Determination of the Cell Growth Inhibiting Activity of 6-(2,6-dichlorophenyl)-2-((4-(4-methylpiperazin-1-yl)phenyl)amino)imidazo[1,2-b]pyrimido[4,5-d]pyridazin-5(6H)-one and Analogs Thereof on LoVo Cells Using a MTT Based Cell Viability Assay
The thawed LoVo cells were cultured and passaged to the third generation, and the growth state was good and the confluence was about 90%, which began to be used in the experiment. The LoVo cells were digested with trypsin, centrifuged at 800 rpm for 5 min, the supernatant was discarded, resuspended with fresh culture medium, and counted. 6000 Cells are seeded to each well of a 96-well cell culture plate. The cells were incubated at 37° C. in a 5% CO2 cell culture incubator overnight. The tested sample (including the tested compound and the reference compound AZD1775) was diluted continuously to 8 concentrations (the last concentration was negative control of DMSO) with a 1:3 and 1:10 dilution in DMSO respectively: 10 μM, 3.3 μM, 1 μM, 0.33 μM, 0.1 μM, 0.033 μM, 0.01 μM, 0 μM (the final concentration of DMSO was 1%). 5 μL of each concentration was added to 120 μL of culture medium (25 times diluted), and the mixture was shaken well. The overnight cells were taken and the culture medium was removed, 195 μL of fresh culture medium was added to each well, and 5 μL of diluted culture medium containing the corresponding concentration of the tested sample was added respectively, and the culture plate was then placed in the 5% CO2 cell culture incubator at 37° C. for 3 d. After removing the original solution and adding 100 μL of fresh serum-free DMEM culture medium containing MTT (0.5 mg/mL) per well, the culture was continued. The original solution was removed after 4 hrs and 100 μl DMSO was added to each well. The 96-well cell culture plates were shaken away from light for 10 min and readed in a multifunctional reader at 552/630/690 nm to give absorption values (OD values). The data were analyzed using a graphic software (Graph Pad Prism 5.0) and the inhibitory activity of the compound on cell proliferation was plotted in terms of cell survival and compound concentration. The IC50 values were fitted by the S-shaped dose-response curve equation as follows: Y=100/(1+10^(Log C−Log IC50)), where C was the concentration of testing compounds.

NCI-H1299 cells = experiment: MTT based cell viability assay on NCI-H1299 cells; conditions: read-out: IC50, growth inhibition on NCI-H1299 cells
Description: Determination of the Cell Growth Inhibiting Activity of 6-(2,6-dichlorophenyl)-2-((4-(4-methylpiperazin-1-yl)phenyl)amino)imidazo[1,2-b]pyrimido[4,5-d]pyridazin-5(6H)-one and Analogs on NCI-H1299 Cells Using a MTT Based Cell Viability Assay
The thawed NCI-H1299 cells were cultured and passaged to the third generation, and the growth state was good and the confluence was about 90%, which began to be used in the experiment. The NCI-H1299 cells were digested with trypsin, centrifuged at 800 rpm for 5 min, the supernatant was discarded, resuspended with fresh culture medium, and counted. 1000 Cells are seeded to each well of a 96-well plate. The cells are incubated at 37° C. in a 5% CO2 cell culture incubator overnight. The tested sample (including the tested compound and the reference compound AZD1775) was diluted continuously to 8 concentrations (the last concentration was negative control of DMSO) with a 1:3 and 1:10 dilution in DMSO respectively: 10 μM, 3.3 μM, 1 μM, 0.33 μM, 0.1 μM, 0.033 μM, 0.01 μM, 0 μM (the final concentration of DMSO was 1%). 5 μL of each concentration was added to 120 μL of culture medium (25 times diluted), and the mixture was shaken well. The overnight cells were taken and the culture medium was removed, 195 μL of fresh culture medium was added to each well, and 5 μL of diluted culture medium containing the corresponding concentration of the tested sample was added respectively, and the culture plate was then placed in the 5% CO2 cell culture incubator at 37° C. for 3 d. After removing the original solution and adding 100 μL of fresh serum-free DMEM culture medium containing MTT (0.5 mg/mL) per well, the culture was continued. The original solution was removed after 4 hrs and 100 μl DMSO was added to each well. The 96-well cell culture plates were shaken away from light for 10 min and readed in a multifunctional reader at 552/630/690 nm to give absorption values (OD values). The data were analyzed using a graphic software (Graph Pad Prism 5.0) and the inhibitory activity of the compound on cell proliferation was plotted in terms of cell survival and compound concentration. The IC50 values were fitted by the S-shaped dose-response curve equation as follows: Y=100/(1+10^(Log C−Log IC50)), where C was the concentration of testing compounds.

[1] = Homo sapiens, 72 h, LoVo cells, 3 d, MTT
[2] = Homo sapiens, 72 h, NCI-H1299 cells, 3 d, MTT

Sequence of Wee1 kinase (h) (P30291 whole entry): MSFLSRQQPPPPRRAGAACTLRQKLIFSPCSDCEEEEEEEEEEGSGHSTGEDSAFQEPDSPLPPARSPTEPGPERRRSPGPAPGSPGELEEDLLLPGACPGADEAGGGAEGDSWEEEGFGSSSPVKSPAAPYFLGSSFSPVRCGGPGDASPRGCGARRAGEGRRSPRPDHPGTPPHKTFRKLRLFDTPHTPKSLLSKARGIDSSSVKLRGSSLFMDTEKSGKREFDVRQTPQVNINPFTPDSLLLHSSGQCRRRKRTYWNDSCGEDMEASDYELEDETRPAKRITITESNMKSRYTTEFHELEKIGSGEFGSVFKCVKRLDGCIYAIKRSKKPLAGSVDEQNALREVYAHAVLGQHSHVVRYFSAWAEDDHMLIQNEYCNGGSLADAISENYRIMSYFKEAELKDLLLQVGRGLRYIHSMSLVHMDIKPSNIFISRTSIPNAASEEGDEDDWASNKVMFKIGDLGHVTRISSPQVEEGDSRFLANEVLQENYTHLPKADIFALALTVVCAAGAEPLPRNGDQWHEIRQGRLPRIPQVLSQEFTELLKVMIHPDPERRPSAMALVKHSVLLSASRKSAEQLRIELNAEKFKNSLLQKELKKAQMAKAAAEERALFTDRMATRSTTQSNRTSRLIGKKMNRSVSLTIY

IC50 (LoVo cells; [1]) [nM]	IC50 (NCI-H1299 cells; [2]) [nM]	Compound	Inh. (%) of Wee1 kinase (Wee1 kinase (h); C 0.01 μm) [%]	Inh. (%) of Wee1 kinase (Wee1 kinase (h); C 0.1 μm) [%]	Inh. (%) of Wee1 kinase (Wee1 kinase (h); C 1 μm) [%]	IC50 (LoVo cells; Homo sapiens, LoVo, 72 h) [nM]	IC50 (NCI-H1299 cells; Homo sapiens, NCI-H1299, 72 h) [nM]	IC50 (LoVo cells; LoVo cells, 3 d, MTT) [nM]	IC50 (NCI-H1299 cells; NCI-H1299 cells, 3 d, MTT) [nM]
–	–	CN1CCN(c2ccc(Nc3ncc4c(=O)n(-c5c(Cl)cccc5Cl)n5ccnc5c4n3)cc2Cl)CC1 [Example 27, 6-(2,6-dichlorophenyl)-2-((3-chloro-4-(4-methylpiperazin-1-yl)phenyl)amino)imidazo[1,2-b]pyrimido[4,5-d]pyridazin-5(6H)-one]	17	76	97	370	470	–	–
–	–	Cc1cc(Nc2ncc3c(=O)n(-c4c(Cl)cccc4Cl)n4ccnc4c3n2)cc(F)c1N1CCN(C)CC1 [Example 28, 6-(2,6-dichlorophenyl)-2-((3-fluoro-5-methyl-4-(4-methylpiperazin-1-yl)phenyl)amino)imidazo[1,2-b]pyrimido[4,5-d]pyridazin-5(6H)-one]	15	–	95	266	295	–	–
–	–	Cc1cc(Nc2ncc3c(=O)n(-c4c(Cl)cccc4Cl)n4ccnc4c3n2)cc(Cl)c1N1CCN(C)CC1 [Example 29, 6-(2,6-dichlorophenyl)-2-((3-chloro-5-methyl-4-(4-methylpiperazin-1-yl)phenyl)amino)imidazo[1,2-b]pyrimido[4,5-d]pyridazin-5(6H)-one]	21	65	93	272	400	–	–
–	–	Cc1cc(Nc2ncc3c(=O)n(-c4c(Cl)cccc4Cl)n4ccnc4c3n2)ccc1N1C[C@@H](C)N(C(C)C)[C@@H](C)C1 [Example 34, 6-(2,6-dichlorophenyl)-2-((3-methyl-4-((3S,5R)-4-isopropyl-3,5-dimethylpiperazin-1-yl)phenyl)amino)imidazo[1,2-b]pyrimido[4,5-d]pyridazin-5(6H)-one]	21	–	–	236	219	–	–
–	–	CN(C)C1CCN(c2ccc(Nc3ncc4c(=O)n(-c5c(Cl)cccc5Cl)n5ccnc5c4n3)cc2Cl)CC1 [Example 35, 6-(2,6-dichlorophenyl)-2-((3-chloro-4-(4-(dimethylamino)piperidin-1-yl)phenyl)amino)imidazo[1,2-b]pyrimido[4,5-d]pyridazin-5(6H)-one]	4	–	96	302	182	–	–
–	–	Cc1cc(Nc2ncc3c(=O)n(-c4c(Cl)cccc4Cl)n4ccnc4c3n2)ccc1N1CCC(N(C)C)CC1 [Example 36, 6-(2,6-dichlorophenyl)-2-((3-methyl-4-(4-(dimethylamino)piperidin-1-yl)phenyl)amino)imidazo[1,2-b]pyrimido[4,5-d]pyridazin-5(6H)-one]	22	–	98	206	135	–	–
–	–	Cc1cc(Nc2ncc3c(=O)n(-c4c(Cl)cccc4Cl)n4ccnc4c3n2)cc(F)c1N1CCC(N(C)C)CC1 [Example 37, 6-(2,6-dichlorophenyl)-2-((3-fluoro-5-methyl-4-(4-(dimethylamino)piperidin-1-yl)phenyl)amino)imidazo[1,2-b]pyrimido[4,5-d]pyridazin-5(6H)-one]	13	–	96	291	187	–	–
–	–	COc1cc(Nc2ncc3c(=O)n(-c4c(Cl)cccc4Cl)n4ccnc4c3n2)cc(Cl)c1N1CCC(N(C)C)CC1 [Example 38, 6-(2,6-dichlorophenyl)-2-((3-chloro-5-methoxy-4-(4-(dimethylamino)piperidin-1-yl)phenyl)amino)imidazo[1,2-b]pyrimido[4,5-d]pyridazin-5(6H)-one]	11	–	–	416	978	–	–
–	–	Cc1cc(Nc2ncc3c(=O)n(-c4c(Cl)cccc4Cl)n4ccnc4c3n2)cc2c1C(C)(C)CN(C)C2 [Example 43, 6-(2,6-dichlorophenyl)-2-((2,4,4,4,5-tetramethyl-1,2,3,4-tetrahydroisoquinolin-7-yl)amino)imidazo[1,2-b]pyrimido[4,5-d]pyridazin-5(6H)-one]	9	–	–	–	–	476	175
–	–	Cc1cc(Nc2ncc3c(=O)n(-c4c(Cl)cccc4Cl)n4ccnc4c3n2)cc2c1CCN(C)C2 [Example 44, 6-(2,6-dichlorophenyl)-2-((2,5-dimethyl-1,2,3,4-tetrahydroisoquinolin-7-yl)amino)imidazo[1,2-b]pyrimido[4,5-d]pyridazin-5(6H)-one]	4	–	–	371	164	–	–
333	270	Cc1cc(Nc2ncc3c(=O)n(-c4c(F)cccc4Br)n4ccnc4c3n2)ccc1N1CCC(N(C)C)CC1 [Example 45, 6-(2-bromo-6-fluorophenyl)-2-((3-methyl-4-(4-(dimethylamino)piperidin-1-yl)phenyl)amino)imidazo[1,2-b]pyrimido[4,5-d]pyridazin-5(6H)-one]	12	–	–	–	–	–	–
242	271	Cc1cc(Nc2ncc3c(=O)n(-c4c(Cl)cccc4Br)n4ccnc4c3n2)ccc1N1CCN(C)CC1 [Example 46, 6-(2-bromo-6-chlorophenyl)-2-((3-methyl-4-(4-methylpiperazin-1-yl)phenyl)amino)imidazo[1,2-b]pyrimido[4,5-d]pyridazin-5(6H)-one]	17	–	92	–	–	–	–
370	562	CN1CCN(c2ccc(Nc3ncc4c(=O)n(-c5c(Cl)cccc5Br)n5ccnc5c4n3)cc2Cl)CC1 [Example 47, 6-(2-bromo-6-chlorophenyl)-2-((3-chloro-4-(4-methylpiperazin-1-yl)phenyl)amino)imidazo[1,2-b]pyrimido[4,5-d]pyridazin-5(6H)-one]	–	–	96	–	–	–	–
